Data taken from ChEMBL document CHEMBL3885881, “DrugMatrix”.

Species: Rattus norvegicus
Assay: DrugMatrix - Regimen: Daily Repeat
Format: toxicity, organism-based, Sprague-Dawley
Set-up: regimen Daily Repeat, gender Male, age 6-8 weeks
Details: in vivo, po, route oral GAVAGE, vehicle 100 % WATER; for ABSOLUTE BASOPHIL / ABSOLUTE EOSINOPHIL / ABSOLUTE LYMPHOCYTE / ABSOLUTE MONOCYTE / ABSOLUTE SEGMENTED NEUTROPHIL / BASOPHIL / EOSINOPHIL / ERYTHROCYTE COUNT / HEMATOCRIT / HEMOGLOBIN / LEUKOCYTE COUNT / LYMPHOCYTE / MEAN CORPUSCULAR HEMOGLOBIN / MEAN CORPUSCULAR HEMOGLOBIN CONCENTRATION / MEAN CORPUSCULAR VOLUME / MONOCYTE / NEUTROPHIL / NUCLEATED RED BLOOD CELLS / PLATELET COUNT: tissue Blood; for ALANINE AMINOTRANSFERASE / ALBUMIN / ALKALINE PHOSPHATASE / ASPARTATE AMINOTRANSFERASE / BLOOD UREA NITROGEN / CARBON DIOXIDE / CHLORIDE / CHOLESTEROL / CREATINE PHOSPHOKINASE / CREATININE / GLUCOSE / LACTATE DEHYDROGENASE / LIPASE / PHOSPHORUS / POTASSIUM / SODIUM / TOTAL BILIRUBIN / TOTAL PROTEIN / URIC ACID: tissue Plasma
[1] = 100 mg/kg, 120 h, dose level Low, time 5 day
[2] = 750 mg/kg, 72 h, dose level High, time 3 day
[3] = 750 mg/kg, 120 h, dose level High, time 5 day

With NC(=O)c1cccnc1 [NIACINAMIDE] the “ABSOLUTE BASOPHIL” value [1] was 0 CELLS/uL, the “ABSOLUTE EOSINOPHIL” value [1] was 0 CELLS/uL and the “ABSOLUTE LYMPHOCYTE” value [1] was 16541 CELLS/uL. For the same compound, the “ABSOLUTE MONOCYTE” value [1] was 560 CELLS/uL, the “ABSOLUTE SEGMENTED NEUTROPHIL” value [1] was 1799 CELLS/uL and the BASOPHIL [1] was 0%. For the same compound, the EOSINOPHIL [1] was 0%, the “ERYTHROCYTE COUNT” value [1] was 5.76 x10E6/uL and the HEMATOCRIT [1] was 36.2%. For the same compound, the HEMOGLOBIN [1] was 13.57 G/DL, the “LEUKOCYTE COUNT” value [1] was 18.9 x10E3/uL and the LYMPHOCYTE [1] was 87.67%. The “MEAN CORPUSCULAR HEMOGLOBIN” value [1] was 23.57 pg, the “MEAN CORPUSCULAR HEMOGLOBIN CONCENTRATION” value [1] was 37.47 G/DL and the “MEAN CORPUSCULAR VOLUME” value [1] was 62.9 fL. The MONOCYTE [1] was 3%, the NEUTROPHIL [1] was 9.33% and the “NUCLEATED RED BLOOD CELLS” value [1] was 0 /100WBC. For the same compound, the “PLATELET COUNT” value [1] was 1257.67 x10E3/uL, the “ALANINE AMINOTRANSFERASE” value [1] was 69.67 u/L and the ALBUMIN [1] was 4.27 G/DL. The “ALKALINE PHOSPHATASE” value [1] was 376.67 u/L, the “ASPARTATE AMINOTRANSFERASE” value [1] was 99.33 u/L and the “BLOOD UREA NITROGEN” value [1] was 17 mg/dL. For the same compound, the “CARBON DIOXIDE” value [1] was 24.33 mmol/L, the CHLORIDE [1] was 102.67 MEQ/L and the CHOLESTEROL [1] was 67.67 mg/dL. For the same compound, the “CREATINE PHOSPHOKINASE” value [1] was 270.33 u/L, the CREATININE [1] was 0.34 mg/dL and the GLUCOSE [1] was 140.67 mg/dL. For the same compound, the “LACTATE DEHYDROGENASE” value [1] was 278 u/L, the LIPASE [1] was 10.67 u/L and the PHOSPHORUS [1] was 13.13 mg/dL. For the same compound, the POTASSIUM [1] was 6.68 MEQ/L, the SODIUM [1] was 145.57 MEQ/L and the “TOTAL BILIRUBIN” value [1] was 0.2 mg/dL. The “TOTAL PROTEIN” value [1] was 6.03 G/DL, the “URIC ACID” value [1] was 1.6 mg/dL and the “ABSOLUTE BASOPHIL” value [2] was 0 CELLS/uL. The “ABSOLUTE EOSINOPHIL” value [2] was 108.33 CELLS/uL, the “ABSOLUTE LYMPHOCYTE” value [2] was 16413 CELLS/uL and the “ABSOLUTE MONOCYTE” value [2] was 47.67 CELLS/uL. For the same compound, the “ABSOLUTE SEGMENTED NEUTROPHIL” value [2] was 1431 CELLS/uL, the BASOPHIL [2] was 0% and the EOSINOPHIL [2] was 0.67%. The “ERYTHROCYTE COUNT” value [2] was 6.31 x10E6/uL, the HEMATOCRIT [2] was 40.5% and the HEMOGLOBIN [2] was 14.57 G/DL. The “LEUKOCYTE COUNT” value [2] was 18 x10E3/uL, the LYMPHOCYTE [2] was 91% and the “MEAN CORPUSCULAR HEMOGLOBIN” value [2] was 23.2 pg. The “MEAN CORPUSCULAR HEMOGLOBIN CONCENTRATION” value [2] was 36 G/DL, the “MEAN CORPUSCULAR VOLUME” value [2] was 64.37 fL and the MONOCYTE [2] was 0.33%. The NEUTROPHIL [2] was 8%, the “NUCLEATED RED BLOOD CELLS” value [2] was 0 /100WBC and the “PLATELET COUNT” value [2] was 1228.67 x10E3/uL. The “ALANINE AMINOTRANSFERASE” value [2] was 84 u/L, the ALBUMIN [2] was 4.57 G/DL and the “ALKALINE PHOSPHATASE” value [2] was 402 u/L. The “ASPARTATE AMINOTRANSFERASE” value [2] was 97.33 u/L, the “BLOOD UREA NITROGEN” value [2] was 17 mg/dL and the “CARBON DIOXIDE” value [2] was 27.33 mmol/L. For the same compound, the CHLORIDE [2] was 101 MEQ/L, the CHOLESTEROL [2] was 85 mg/dL and the “CREATINE PHOSPHOKINASE” value [2] was 304.67 u/L. The CREATININE [2] was 0.23 mg/dL, the GLUCOSE [2] was 150.67 mg/dL and the “LACTATE DEHYDROGENASE” value [2] was 174.67 u/L. It also gave an LIPASE [2] of 11 u/L, a PHOSPHORUS [2] of 10.23 mg/dL and a POTASSIUM [2] of 6.7 MEQ/L. For the same compound, the SODIUM [2] was 143.83 MEQ/L, the “TOTAL BILIRUBIN” value [2] was 0.2 mg/dL and the “TOTAL PROTEIN” value [2] was 6.17 G/DL. For the same compound, the “URIC ACID” value [2] was 1.8 mg/dL, the “ABSOLUTE BASOPHIL” value [3] was 0 CELLS/uL and the “ABSOLUTE EOSINOPHIL” value [3] was 45.33 CELLS/uL. For the same compound, the “ABSOLUTE LYMPHOCYTE” value [3] was 12211.67 CELLS/uL, the “ABSOLUTE MONOCYTE” value [3] was 352 CELLS/uL and the “ABSOLUTE SEGMENTED NEUTROPHIL” value [3] was 1824.33 CELLS/uL. The BASOPHIL [3] was 0%, the EOSINOPHIL [3] was 0.33% and the “ERYTHROCYTE COUNT” value [3] was 5.73 x10E6/uL. The HEMATOCRIT [3] was 36.63%, the HEMOGLOBIN [3] was 13.6 G/DL and the “LEUKOCYTE COUNT” value [3] was 14.43 x10E3/uL. For the same compound, the LYMPHOCYTE [3] was 85.33%, the “MEAN CORPUSCULAR HEMOGLOBIN” value [3] was 23.77 pg and the “MEAN CORPUSCULAR HEMOGLOBIN CONCENTRATION” value [3] was 37.13 G/DL. For the same compound, the “MEAN CORPUSCULAR VOLUME” value [3] was 63.93 fL, the MONOCYTE [3] was 2.33% and the NEUTROPHIL [3] was 12%. For the same compound, the “NUCLEATED RED BLOOD CELLS” value [3] was 0 /100WBC, the “PLATELET COUNT” value [3] was 1227.33 x10E3/uL and the “ALANINE AMINOTRANSFERASE” value [3] was 71.67 u/L. For the same compound, the ALBUMIN [3] was 4.53 G/DL, the “ALKALINE PHOSPHATASE” value [3] was 405.67 u/L and the “ASPARTATE AMINOTRANSFERASE” value [3] was 97 u/L. The “BLOOD UREA NITROGEN” value [3] was 18 mg/dL, the “CARBON DIOXIDE” value [3] was 28.67 mmol/L and the CHLORIDE [3] was 101.67 MEQ/L. For the same compound, the CHOLESTEROL [3] was 92 mg/dL, the “CREATINE PHOSPHOKINASE” value [3] was 216.33 u/L and the CREATININE [3] was 0.2 mg/dL. For the same compound, the GLUCOSE [3] was 160.33 mg/dL, the “LACTATE DEHYDROGENASE” value [3] was 82 u/L and the LIPASE [3] was 11 u/L. For the same compound, the PHOSPHORUS [3] was 10.6 mg/dL, the POTASSIUM [3] was 5.82 MEQ/L and the SODIUM [3] was 147.1 MEQ/L. For the same compound, the “TOTAL BILIRUBIN” value [3] was 0.2 mg/dL, the “TOTAL PROTEIN” value [3] was 6.33 G/DL and the “URIC ACID” value [3] was 1.3 mg/dL.
